Key:
[1] = system: DSS-induced UC model mice; test: FD4 permeability analysis in DSS-induced UC model; assay type: in vivo, BALB/c male mice; details: 20 mg/kg FD4 by gavage 30 minutes before sacrifice; 28-OA-β-G intervention; compared with model group
Experimental: (§1) SPF-grade BALB/c male mice (weighting 22-24 g) were purchased from Changchun Yisi Laboratory Animal Technology Co., Ltd. After 1 week of adaptive feeding, the mice were randomly divided into 6 groups (n=10), including: a control group, a model group, a positive drug group (5-ASA, 100 mg/kg), an oleanolic acid-28-O-β-D-glucopyranoside low-dose group (28-OA-β-GL, 5 mg/kg), an oleanolic acid-28-O-β-D-glucopyranoside medium-dose group (28-OA-β-GM, 10 mg/kg), and an oleanolic acid-28-O-β-D-glucopyranoside high-dose group (28-OA-β-GH, 20 mg/kg).
The control group was administrated with distilled water, while the other groups were freely allowed to drink a 3.5% dextran sulfate sodium (M.W.: 40,000 Da, DSS) solution for 7 days to induce a UC model. […]
FD4 permeability analysis: all mice were administrated with 20 mg/kg FD4 normal saline solution by gavage 30 minutes before sacrifice, whole blood was collected by the eye blood collection method on a sterile ultra-clean table, and the upper serum was taken after centrifugation, and then aspirated into a black 96-well microplate. The fluorescence intensity was detected using a microplate reader at an excitation wavelength of 492 nm and an emission wavelength of 520 nm. […]

Caco-2 cells = test: Transmembrane epithelial resistance (TEER) in LPS-induced Caco-2 cells; assay type: cell-based, Human; details: LPS 1 μg/ml + 28-OA-β-G 8 μM, 24 hours; compared with LPS treatment
Experimental: (§2) (1) Determination of Transmembrane Epithelial Resistance and Inflammatory Factors in Caco-2 Cells
(§3) The Caco-2 cells were inoculated at a density of 1×10^5 cells/ml (400 μl per well) into a Transwell chamber and cultured under 5% CO2 and 37° C. After Day 21, a medium was replaced with a basal MEM medium. […] Resistance values were measured using a transmembrane resistance meter. TEER value=(measured resistance value−control resistance value)×Transwell chamber area, expressed in Ω·cm^2. […]

[2] = system: TNF-α, IL-6, and iNOS in Caco-2 cells; test: Inflammatory factors TNF-α, IL-6, iNOS by ELISA in LPS-induced Caco-2 cell model; assay type: cell-based, Human; details: LPS 1 μg/ml, 24 hours; high-dose groups 8 μM
Experimental: as §2, §3

[3] = system: DSS-induced UC model mice; test: Inflammatory factor and oxidative stress indicators by ELISA in serum and colon of DSS-induced UC model; assay type: in vivo, BALB/c male mice; details: compared with model group; for IL-6 level / TNF-α level / iNOS level: serum and colon, gavage 5-ASA 100 mg/kg, 28-OA-β-G 5, 10, 20 mg/kg
Experimental: SPF-grade BALB/c male mice (weighting 22-24 g) were purchased from Changchun Yisi Laboratory Animal Technology Co., Ltd. After 1 week of adaptive feeding, the mice were randomly divided into 6 groups (n=10), including: a control group, a model group, a positive drug group (5-ASA, 100 mg/kg), an oleanolic acid-28-O-β-D-glucopyranoside low-dose group (28-OA-β-GL, 5 mg/kg), an oleanolic acid-28-O-β-D-glucopyranoside medium-dose group (28-OA-β-GM, 10 mg/kg), and an oleanolic acid-28-O-β-D-glucopyranoside high-dose group (28-OA-β-GH, 20 mg/kg). The control group was administrated with distilled water, while the other groups were freely allowed to drink a 3.5% dextran sulfate sodium (M.W.: 40,000 Da, DSS) solution for 7 days to induce a UC model. From the Day 4 to Day 10 of modeling, the mice in the control group and the model group were administrated with distilled water by gavage, while the mice in other groups were administrated with a 5-ASA or 28-OA-β-G solution by gavage, respectively. The gavage was performed once a day. The administration volume was 10 ml/kg. After fasting for 12 hours on the Day 10, whole blood was collected from all mice by using an eyeball blood collection method, the mice were killed by cervical dislocation, and colon tissues and spleen tissues were collected. Content determination of inflammatory factor and oxidative stress indicators: serum and colon tissue samples were collected, and the contents of TNF-α, IL-6, and iNOS in the serum and colon were determined using an ELISA kit, while the levels of MPO, SOD, and MDA in the colon were detected.

[4] = system: ZO-1, Occludin, Claudin-1, and E-cadherin in Caco-2 cells; test: Expression of tight junction proteins in Caco-2 cells by immunofluorescence; assay type: cell-based, Human; details: 24 hours
Experimental: (2) Determination of Expression Level of Tight Junction Proteins in Caco-2 Cells
Caco-2 cells (1×10^5 cells/ml) were inoculated onto a cell climbing slice in a 24-well plate (with 600 μl of cells per well), and reached confluence within 2 days. The cells were divided into 7 groups: a control group, a model group (LPS 1 μg/ml), a 5-ASA group (LPS 1 μg/ml+5-ASA 50 μM), an LPS+28-OA-β-GL group (LPS 1 μg/ml+28-OA-β-G 2 μM), an LPS+28-OA-β-GM group (LPS 1 μg/ml+28-OA-β-G 4 μM), an LPS+28-OA-β-GH group (LPS 1 μg/ml+28-OA-β-G 8 μM), and a 28-OA-β-G group (28-OA-β-G 8 μM). The control group was added with a MEM medium, while the other groups were added with the corresponding doses of LPS and 28-OA-β-G with the MEN medium as a solvent, and incubated in a 5% CO2, 37° C. constant-temperature incubator for 24 hours. Immunofluorescence imaging was performed after a series of treatments.

[5] = system: DSS-induced UC model mice; test: DSS-induced UC model: body weight, DAI score, colon length, spleen coefficient; assay type: in vivo, BALB/c male mice; details: for weight loss rate: 3.5% DSS 7 days, gavage once a day Day 4 to Day 10, 28-OA-β-G 5, 10, 20 mg/kg
Experimental: as §1
(§4) The control group was administrated with distilled water, while the other groups were freely allowed to drink a 3.5% dextran sulfate sodium (M.W.: 40,000 Da, DSS) solution for 7 days to induce a UC model. From the Day 4 to Day 10 of modeling, the mice in the control group and the model group were administrated with distilled water by gavage, while the mice in other groups were administrated with a 5-ASA or 28-OA-β-G solution by gavage, respectively. The gavage was performed once a day. The administration volume was 10 ml/kg. After fasting for 12 hours on the Day 10, whole blood was collected from all mice by using an eyeball blood collection method, the mice were killed by cervical dislocation, and colon tissues and spleen tissues were collected.
Body weight and disease activity index scores: during the experiment, all mice were weighed every day, and the general behavior states of the mice were observed; the weight changes, stool states and hematochezia degrees of the mice were recorded every day, and scored according to the criteria shown in Table 3; and an average disease activity index (DAI) score of the mice in each group per day was calculated according to the formula: DAI=(weight loss score+stool state score+hematochezia degree score)/3.
Spleen coefficient: the spleen tissues were dissected and accurately weighed, and the spleen coefficient was calculated using the formula: spleen coefficient=spleen mass (mg)/mouse weight (g), as shown in FIG. 10. The spleen coefficient also reflected the degree of inflammatory response within the body.

[6] = system: DSS-induced UC model mice; test: Transmission electron microscope observation of mouse colon tissues; assay type: in vivo, BALB/c male mice; details: 28-OA-β-GH group, 20 mg/kg; compared with model group
Experimental: as §1
as §4, with “collected. […]” for “collected.”

CC1(C)CC[C@]2(C(=O)O[C@@H]3O[C@H](CO)[C@@H](O)[C@H](O)[C@H]3O)CC[C@]3(C)C(=CC[C@@H]4[C@@]5(C)CC[C@H](O)C(C)(C)[C@@H]5CC[C@]43C)[C@@H]2C1 [28-OA-β-G, Oleanolic acid-28-O-β-D-glucopyranoside]
serum FD4 concentration (FD4 permeability) [1]: significantly reduced
TEER value (Caco-2 cells): significantly increased
anti-inflammatory activity (TNF-α, IL-6, iNOS levels), comparison among compounds [2]: best anti-inflammatory activity among the high-dose administration groups
MDA level ([3]; colon): dose-dependently reduce
MPO level ([3]; colon): dose-dependently reduce
SOD level ([3]; colon): increased
IL-6 level [3]: significantly decreased
TNF-α level [3]: significantly decreased
iNOS level [3]: significantly decreased
distribution on the cell membrane and expression of the four tight junction proteins (ZO-1, Occludin, Claudin-1, E-cadherin) ([4]; LPS 1 μg/ml + 28-OA-β-G 2, 4, 8 μM, as dose increased): regained their normal distribution on the cell membrane and also increase the expression
expression of the four tight junction proteins (ZO-1, Occludin, Claudin-1, E-cadherin) ([4]; normal cells without LPS, 28-OA-β-G alone 8 μM): not affected
weight loss rate ([5]; 5-ASA 100 mg/kg): significantly reduced
weight changes, relation to dose ([5]; 28-OA-β-G 5, 10, 20 mg/kg gavage): positively correlated with the increase in dose
spleen coefficient ([5]; 28-OA-β-G high-dose group, 20 mg/kg, compared with model group): significantly reduced
spleen coefficient ([5]; 28-OA-β-G medium-dose group, 10 mg/kg, compared with model group): significantly reduced
weight changes ([5]; 28-OA-β-GH group, 20 mg/kg gavage): tended towards the control group
anti-ulcerative-colitis activity (overall conclusion) ([5]; DSS-induced UC model, compared with positive control 5-ASA): significant anti-ulcerative-colitis activity which was not statistically different from that of the positive control group of 5-ASA
DAI score compared to the 5-ASA group ([5]; Day 10, 28-OA-β-GH group, 20 mg/kg, 5-ASA 100 mg/kg): no significant difference compared to the 5-ASA group
DAI score ([5]; Day 10, 28-OA-β-GH group, 20 mg/kg, compared with model group): significantly lower than that in the model group
colon length (degree of colon damage) ([5]; oral administration of 28-OA-β-G 5, 10, 20 mg/kg, compared with model group): effectively alleviated
ultrastructure of colonic mucosa cells (transmission electron microscope) [6]: restored the integrity of intestinal mucosa cells

Nc1ccc(O)c(C(=O)O)c1 [5-ASA, 5-aminosalicylic acid, reference compound]
IL-6 level [3]: significantly decreased
TNF-α level [3]: significantly decreased
iNOS level [3]: significantly decreased
weight loss rate ([5]; 5-ASA 100 mg/kg): significantly reduced
spleen coefficient ([5]; positive drug group, 5-ASA 100 mg/kg, compared with model group): significantly reduced

— patent US12491204B2, “Use of oleanolic acid-28-O-beta-D-glucopyranoside in preparation of anti-colitis drug” (JILIN UNIVERSITY, priority 2023, dated 2025)
